Results reported in patent US5814612A, “Retinol derivatives and uses thereof” (priority 1992, dated 1998).

Tests used:
[1] = test system: 5/2 lymphoblastoid cells; test: Kinetics of biosynthesis of 13,14DHR and 14HRR from 3H retinol in 5/2 lymphoblastoid cells; type: in vitro ADME, human
Experimental: FIG. 24. Kinetics of biosynthesis of 14HRR in lymphoblastoid cells. 50 ml ITLB 600,000 5/2 cells/ml were incubated with 20 μCi of ^3 H retinol in serum-free ITLB medium. Cell pellets corresponding to 10 ml of culture were delipidated at 20 minute intervals and the corresponding lipid fraction separated on an analytical C18 reversed-phase column (see FIG. 20). Radioactive peaks were identified by coelution with cold reference retinoids.
The kinetics of biosynthesis of 13,14DHR and 14HRR were determined in 5/2 lymphoblastoid cells. These cells were cultured in the presence of ^3 H retinol for different time periods, and the cell-associated retinoids extracted as referenced above. They were then chromatographed on an analytical C18 column as described in FIG. 20. The sizes of peaks emerging at 16.8 minutes, representing 13,14DHR, and 18.5 minutes, representing 14HRR, were measured and plotted in the bar diagram of FIG. 24.

[2] = test system: T cells; test: T cell activation and proliferation, retinol cofactor requirement; type: cell-based, murine
Experimental: They were seeded into 96-well flat-bottom plates at varying cellular densities in a final volume of 100 μl. In control experiments, cells were cultured in medium containing 10% FCS or 3% human serum and 5×10^-5 M 2ME. […] Cultures were carried out in duplicate. Plates were incubated at 37° C. in a humidified 5% CO2 atmosphere. Cellular proliferation was determined by [^3 H] thymidine uptake (0.5 uCi/well; New England Nuclear, Boston, Mass.) after the incubation times indicated for each experiment with a 4 hour labeling pulse. Cells were harvested onto glass filter and [^3 H]TdR incorporation was determined by liquid scintillation counting. The data presented are the means of duplicate or six replicate cultures. The restriction to duplicate measurements was necessary to conserve scarce 14HRR. […] Each experiment was repeated at least twice.

[3] = test system: lymphoblastoid 5/2 cells; test: Conversion of 13,14DHR to 14HRR by lymphoblastoid cells; type: in vitro ADME, human; conditions: 10^-6 M, 1 and 2 hours, ITLB medium
Experimental: FIGS. 25A through 25D. 13,14DHR can be converted to 14HRR by lymphoblastoid cells. 200,000 5/2 cells/ml were incubated with or without 10^-6 M 13,14DHR added in serum-free ITLB medium. After 1 and 2 hours, cells pellets corresponding to 10 ml of culture were delipidated and the corresponding lipid fractions separated on an analytical C18 reversed-phase column according to FIG. 20. Peaks were identified according to their retention times and their UV absorption patterns.
Lymphoblastoid 5/2 cells devoid of retinol were cultured in the presence or absence of 10^-6 M 13,14DHR for 1 and 2 hours in ITLB medium. The retinoids extracted from the cell pellets were separated by HPLC according to FIG. 20. […] There was no 14HRR measurable in control cultures.

[4] = test system: 5/2 cells; test: Growth-supporting activity on 5/2 cells in serum-free ITLB medium; type: cell-based, human
Experimental: The assay was done in 96-well microtiter plates in a final volume of 200 ul/well. The cells were cultured for 72 hours and cell growth determined by [^3 H] thymidine (0.8 μCi/well)labeling for the last 16 hours. Retinoids were added at the indicated concentrations at the initiation of culture and every 24 hours thereafter.
5/2 cells were grown in the absence of retinol in a medium containing the basic RPMI 1640 amino acid/salt mixture, insulin (5 μg/ml), transferrin (5 μg/ml), albumin (0.1%) and linoleic acid (10^-6 M) (ITLB). […] The dose-response curve shown in FIG. 26 indicates an effective concentration of 10^-7 M.

[5] = test system: lymph node T cells; test: Proliferation of anti-CD3 activated lymph node T cells; type: cell-based, BALB/c mouse
From the text: (§1) Growth curves of lymph node T cells depleted of antigen-presenting cells (FIG. 17A) with and without 10^-6 M retinol at 2×10^5 and 5×10^4 cells/well. (FIG. 17B) Dose-responses elicited by different retinoids in cultures of lymph node T cells depleted of antigen-presenting cells. Also shown are the growth curves of CD4^+ (FIG. 17C) and CD8^+ T lymphocytes (FIG. 17D) in the presence of either retinol, 14HRR, human serum or in their absence.
(§2) T lymphocytes, purified as described, 5×10^4 /well, were activated with immobilized anti-CD3 antibody in ITLB medium. The indicated amounts of retinoids or human serum were added at initiation of cultures. […] 14HRR was added every 12 hours. DNA synthesis was measured by a 4 hour pulse with tritiated thymidine. SDs were ≤17%.
(§3) Mature T cells were obtained from pooled intestinal, axillary, inguinal and submandibular lymph nodes of 4 to 10-week-old BALB/c mice. To fractionate cells into CD4 and CD8 subsets and at the same time remove APC, a combination of adherence and complement lysis was used as follows:
(§4) The cell suspension in a volume of 2 ml was applied to a nylon wool column (40) (0.6 g of washed nylon fibers in the barrel of a 10 ml syringe) and incubated at 37° C. for 40 min. […] The success of the enrichment procedures was monitored cytofluorimetrically using FITC-conjugated anti-CD8 and PE-conjugated anti-CD4. […]
Cells were cultured in serum-free medium, referred to as ITLB, containing RPMI 1640 supplemented with 8×10^-7 M insulin (5 μg/ml), 7×10^-8 M transferrin (5 μg/ml), 2×10^-6 M linoleic acid, 2×10^-6 M delipidated BSA (0.12 mg/ml), 2 mM L-glutamine, 1 mM sodium pyruvate and antibiotics. […] The optimal concentration for stimulation of T cells was determined for each batch of anti-CD3 mAb and Con A. The optimal range of Con A was particularly narrow in serum-free medium (0.5-0.2 μg/ml) and varied with the cell density used. […] Cellular proliferation was determined by [^3 H] thymidine uptake (0.5 uCi/well; New England Nuclear, Boston, Mass.) after the incubation times indicated for each experiment with a 4 hour labeling pulse. […]

[6] = test system: activated human thymocytes; conditions: cited from earlier work
[7] = test system: lymphoblastoid cells (LCL); conditions: cited from earlier work
[8] = test system: thymocytes; test: Proliferation of anti-CD3 activated thymocytes in serum-free ITLB medium; type: cell-based, BALB/c mouse
Experimental: FIG. 14A: Purified BALB/c thymocytes were activated with immobilized anti-CD3e antibody and cultivated for four days in ITLB medium with or without retinol (3×10^-6 M), 14HRR (6×10^-7 M) (fresh 14HRR was added every 12 hours), human serum (3%) or FCS (10%) at the cellular densities shown. Proliferation was assayed by tritiated thymidine incorporation into cellular DNA.
FIG. 14B: BALB/c thymocytes (10^6 /ml) were added to microtiter plates coated with titrated amounts of anti-CD3e antibody with […] retinol or without, as indicated. Proliferation was measured in hexaduplicate wells on day 3 by ^3 H thymidine incorporation assay.
Purified thymocytes (5×10^5 cells/well) were stimulated by TCR crosslinking with immobilized anti-CD3e antibody (FIG. 15A) or 0.4 μg/ml Con A (FIG. 15B) in serum-free ITLB medium. The indicated amounts of retinoids were added either once at the beginning of the experiment (marked as "1×") or every 12 hours thereafter (marked as "6×"). DNA synthesis was measured after 72 hours by tritiated thymidine uptake as described.
Purified thymocytes (10^5 cells/well) were activated with anti-CD3 antibody in ITLB medium with or without retinol (3×10^-6 M), 14HRR (6×10^-7, added every 12 hours or human serum (3%)). DNA synthesis was measured daily by a 4 hour pulse of tritiated thymidine.
Thymocytes (5×10^4 /well) were activated by immobilized anti-CD3 mAb in medium ITLB. Retinol (2×10^-6 M) was added at initiation of culture, or delayed by 12 hours and 24 hours, respectively, or omitted altogether. ^3 H thymidine pulses of 4 hours were used to measure DNA synthesis of hexaduplicate wells.
Thymuses of 3 to 6-week-old BALB/c mice were teased in serum-free RPMI medium supplemented with 1% BSA, 10^-6 M linoleic acid and antibiotics. Depletion of accessory cells was achieved by two cycles of complement-dependent lysis with a mixture of anti-IA^d (5 μg/ml) and anti-IE^d (1:500 diluted ascites fluid). Briefly, cells were incubated on ice for 30 minutes with Ia antibodies, spun down, resuspended in 1:40 diluted rabbit complement, and incubated at 37° C. for 45 minutes. Incubations and two subsequent washes were carried out with RPMI medium containing 1% BSA. Cell viability was evaluated by trypan blue dye exclusion. To determine the extent of depletion of accessory cells, samples were stained with FITC-conjugated anti-Fc receptor antibody and analyzed by flow cytometry on a FACScan instrument (Becton Dickinson).
Cells were cultured in serum-free medium, referred to as ITLB, containing RPMI 1640 supplemented with 8×10^-7 M insulin (5 μg/ml), 7×10^-8 M transferrin (5 μg/ml), 2×10^-6 M linoleic acid, 2×10^-6 M delipidated BSA (0.12 mg/ml), 2 mM L-glutamine, 1 mM sodium pyruvate and antibiotics. They were seeded into 96-well flat-bottom plates at varying cellular densities in a final volume of 100 μl. In control experiments, cells were cultured in medium containing 10% FCS or 3% human serum and 5×10^-5 M 2ME. T cells and thymocytes were activated with immobilized, purified anti-mAb CD3e or by the addition of Con A in the presence or absence of different concentrations of retinoids. Unless indicated otherwise, retinoids were replenished every 12 hours to maintain a reasonably constant concentration of these labile compounds in culture. […] Cultures were carried out in duplicate. Plates were incubated at 37° C. in a humidified 5% CO2 atmosphere. Cellular proliferation was determined by [^3 H] thymidine uptake (0.5 uCi/well; New England Nuclear, Boston, Mass.) after the incubation times indicated for each experiment with a 4 hour labeling pulse.

[9] = test system: CD8^+ T lymphocytes; test: Proliferation of anti-CD3 plus IL-2 activated CD8+ T lymphocytes; type: cell-based, BALB/c mouse
From the text: as §1, §2, §3, §4

[10] = test system: B lymphocytes; conditions: previous analyses with B lymphocytes (ref. 33); cited from earlier work
[11] = test system: CD4^+ T lymphocytes; test: Proliferation of anti-CD3 activated CD4+ T lymphocytes; type: cell-based, BALB/c mouse
From the text: as §1, §2, §3, §4

conversion to 14HRR [3]	Structure (SMILES)	order of metabolite production [1]	ability to substitute for retinol in T cell activation (words) [2]	restoration of proliferation in absence of retinol [4]	stimulation of lymph node T cells [5]	support of growth of activated human thymocytes [6]	support of growth of LCL in serum-free medium [7]	effect of delayed addition ([8]; addition delayed by 24 hours)	effectiveness relative to retinol ([8]; anti-CD3, 14HRR at 12 hour intervals)	optimally effective dose ([8]; given once in a 3-day culture)	optimally effective dose ([8]; provided at 12 hour intervals)	response of CD8+ subset to anti-CD3 plus IL-2 [9]	active concentration [10]	response of CD4+ subset to anti-CD3 [11]
produced 14HRR	CC1=C(/C=C/C(C)=C/C=C/C(C)(O)C(O)CO)C(C)(C)CCC1 (stereo not drawn) [13,14DHR, 13,14-dihydroxy-retinol]	production of 13,14DHR precedes that of 14HRR	can effectively substitute for retinol	proliferation was restored as well										
	CC1=C(/C=C/C(C)=C/C=C/C(C)=C/C=O)C(C)(C)CCC1 [all-trans retinal]		can substitute for retinal		dependent on the presence of retinal	The same is true for activated human thymocytes	support the growth of LCL in serum-free medium	complete failure of activation	equally effective as all-trans retinol	2 µM	0.2 µM	responded to the activating signal	200 nM	responded to the activating signal
